From patent publication US10577362B2, “Substituted 2, 4-diamino-quinoline derivatives for use in the treatment of proliferative diseases” (GENOSCIENCE PHARMA, priority 2016, dated 2020)

Tests used:
[1] = test system: MOLM-14 (acute myeloid leukemia) cell line; assay: CellTiter-Glo luminescent cell viability assay, MOLM-14; format: cell-based, human; settings: Homo sapiens; for viability at 4 µM: MOLM-14, compound at 4 μM; for viability at 4 µM / viability at 10 µM: 72 h; for viability at 10 µM: MOLM-14, compound at 10 μM; for EC50: MOLM-14 cell line, 72 h incubation, CellTiter-Glo, read-out: EC50, growth inhibition of MOLM-14
In short: (§1)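 Cells were cultured at 37 °C, 5% CO2 with 10% FBS; adherent lines were plated overnight, suspension MOLM-14 plated 1 h before dosing. Compounds in H2O or DMSO were added at various concentrations for 72 h, and viability was read by luminescence. EC50 is the dose reducing signal to 50% of diluent control.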

[2] = test system: A375 (malignant melanoma) cell line; assay: CellTiter-Glo luminescent cell viability assay, A375; format: cell-based, human; settings: Homo sapiens, A-375; for viability at 4 µM: A375, compound at 4 μM; for viability at 4 µM / viability at 10 µM: 72 h; for viability at 10 µM: A375, compound at 10 μM; for EC50: A375 cell line, 72 h incubation, CellTiter-Glo, read-out: EC50, growth inhibition of A375
In short: (§2)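 Adherent lines plated overnight, MOLM-14 (suspension) 1 h before dosing, in medium with 10% FBS at 37 °C, 5% CO2. Compounds added at varying concentrations for 72 h; CellTiter-Glo luminescence read, EC50 as dose reducing signal to 50% of diluent-treated cells, at least duplicate points.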

[3] = test system: HCT-116 (colorectal carcinoma) cell line; assay: CellTiter-Glo luminescent cell viability assay, HCT-116; format: cell-based, human; settings: Homo sapiens; for viability at 4 µM: HCT-116, compound at 4 μM; for viability at 4 µM / viability at 10 µM: 72 h; for viability at 10 µM: HCT-116, compound at 10 μM; for EC50: HCT-116 cell line, 72 h incubation, CellTiter-Glo, read-out: EC50, growth inhibition of HCT-116
In short: as §2

[4] = test system: Huh7 (hepatocellular carcinoma) cell line; assay: CellTiter-Glo luminescent cell viability assay, Huh7; format: cell-based, human; settings: Homo sapiens, Huh-7; for viability at 4 µM: Huh7, compound at 4 μM; for viability at 4 µM / viability at 10 µM: 72 h; for viability at 10 µM: Huh7, compound at 10 μM; for EC50: Huh7 cell line, 72 h incubation, CellTiter-Glo, read-out: EC50, growth inhibition of Huh7
In short: as §1

[5] = test system: 786-O (renal adenocarcinoma) cell line; assay: CellTiter-Glo luminescent cell viability assay, 786-O; format: cell-based, human; settings: Homo sapiens, 786-0; for viability at 4 µM / viability at 10 µM: 786-O, 72 h; for viability at 4 µM: compound at 4 μM; for viability at 10 µM: compound at 10 μM; for EC50: 786-O cell line, 72 h incubation, CellTiter-Glo, read-out: EC50, growth inhibition of 786-O
In short: as §2

[6] = test system: HepG2 (hepatocellular carcinoma) cell line; assay: CellTiter-Glo luminescent cell viability assay, HepG2; format: cell-based, human; settings: Homo sapiens; for viability at 4 µM / viability at 10 µM: HepG2, HepG, 72 h; for viability at 4 µM: compound at 4 μM; for viability at 10 µM: compound at 10 μM; for EC50: HepG2 cell line, 72 h incubation, CellTiter-Glo, read-out: EC50, growth inhibition of HepG2
In short: as §1

[7] = test system: PANC-1 (prancreatic carcinoma) cell line; assay: CellTiter-Glo luminescent cell viability assay, PANC-1; format: cell-based; settings: Homo sapiens; for viability at 4 µM: PANC-1, 4 μM; for viability at 4 µM / viability at 10 µM: 72 h, % of signal of diluent-treated cultures; for viability at 10 µM: PANC-1, 10 μM; for EC50: PANC-1 cell line, 72 h incubation, CellTiter-Glo, read-out: EC50 (growth inhibition assay of PANC-1 cell line)
Experimental: All cell lines were maintained in medium containing 1% penicillin-streptomycin (Dutscher, P06-07100) and 10% Fetal Bovine Serum (Hyclone Dutscher, RZK35922) cultured at 37° C. with 5% CO2. HepG2 (hepatocellular carcinoma), cell line was cultured in Dulbecco's modified Eagle's medium low glucose (Gibco, 21885025), Huh7 (hepatocellular carcinoma), HCT-116 (colorectal carcinoma), PANC-1 (prancreatic carcinoma) and A375 (malignant melanoma) cell lines were cultured in Dulbecco's modified Eagle's medium (Dutscher, L0103). MOLM-14 (acute myeloid leukemia) cell line was maintained in MEM alpha medium (Gibco, 22561-021). 786-0 (renal adenocarcinoma) cell lines were maintained in RPMI 1640 medium (Dutscher, L0498).
Cell viability was measured using the CellTiter-Glo® luminescent cell viability assay as described by the manufacturer (Promega, Ref G7571) using an Infinite F200Pro luminometer (Tecan). Briefly, for adherent cells, cells were plated onto 96-well plates (white with clear bottom) in 90 μL of media per well and were allowed to grow overnight before the assay. For cells growing in suspension, cells were plated onto 96-well plates 1 h before the assay.
Compounds were resuspended in H2O or DMSO and added at different concentrations to each well, and cell cultures were incubated for 72 h. Each diluent (H2O or DMSO) were used as a control, and all compounds were tested in a constant percentage of H2O or DMSO. On the day of the reading, plates are equilibrated 30 min at room temperature before the addition of 100 μL of CellTiter-Glo® and luminescence was measured using an Infinite F200Pro (Tecan). % cell viability were expressed as a percentage of the signal obtained for cell cultures treated with diluent. EC50 values were determined as the dose of compound required to reduce luminescent values to 50% of the signal obtained for cell cultures treated with diluent. The experimental data were analyzed using a computer program, Graphpad Prism v5 (GraphPad Software, Inc. La Jolla, Calif.). All points were at least done in duplicate.

| Compound | EC50 [1] [µM] | EC50 [2] [µM] | EC50 [3] [µM] | EC50 [4] [µM] | EC50 [5] [µM] | EC50 [6] [µM] | viability at 4 µM [1] [%] | viability at 10 µM [1] [%] | viability at 4 µM [2] [%] | viability at 10 µM [2] [%] | viability at 4 µM [3] [%] | viability at 10 µM [3] [%] | viability at 4 µM [4] [%] | viability at 10 µM [4] [%] | viability at 4 µM [5] [%] | viability at 10 µM [5] [%] | viability at 4 µM [6] [%] | viability at 10 µM [6] [%] | viability at 4 µM [7] [%] | viability at 10 µM [7] [%] | further results |
| --- | --- | --- | --- | --- | --- | --- | --- | --- | --- | --- | --- | --- | --- | --- | --- | --- | --- | --- | --- | --- | --- |
| CC(C)(C)NC1CCN(c2c(C#N)c(Nc3cccc(C(F)(F)F)c3)nc3ccccc23)CC1 [Compound 3256CN, 2-(3-trifluoromethylphenylamino)-3-cyano-4-[4-(tert-butylamino)piperidin-1-yl]quinoline] | – | – | – | – | – | – | 91.1 | 85.6 | 55.2 | 2.4 | 3.6 | 0.2 | 78.3 | 29.3 | 61.8 | 13.7 | 82.9 | 56.6 | 104 | 81.8 | – |
| CC(C)(C)NC1CCN(c2c(C#N)c(Nc3ccncn3)nc3ccccc23)CC1 [Compound 3282CN, 2-(pyrimidin-4-ylamino)-3-cyano-4-[4-(tert-butylamino)piperidin-1-yl]quinoline] | – | – | – | – | – | – | 93.3 | 63.5 | 88.6 | 64.1 | 73.7 | 39.8 | 97.9 | 75.4 | 102 | 76.9 | 58.9 | 40.3 | 102 | 77.3 | – |
| Cc1nc(Nc2nc3ccccc3c(N3CCC(NC(C)(C)C)CC3)c2C#N)n(C)n1 [Compound 3274CN, 2-[(1,3-dimethyl-1H-1,2,4-triazol-5-yl)amino]-3-cyano-4-[4-(tert-butylamino)piperidin-1-yl]quinoline] | – | – | – | – | – | – | 91.3 | 78.2 | 84.7 | 69.2 | 73.3 | 49.5 | 96.2 | 75 | 106 | 83.4 | 63.4 | 55.2 | 96.7 | 89.9 | – |
| CC(C)(C)NC1CCN(c2c(C#N)c(Nc3ccccc3C(F)(F)F)nc3ccccc23)CC1 [Compound 3254CN, 2-(2-trifluoromethylphenylamino)-3-cyano-4-[4-(tert-butylamino)piperidin-1-yl]quinoline] | 5 to 10 | 0.5 to 5 | 0.5 to 5 | 0.5 to 5 | 0.5 to 5 | 0.5 to 5 | 81.4 | 0.3 | 0.4 | 0.2 | 0.3 | 0.2 | 34.2 | 0.3 | 6.3 | 0.3 | 6.9 | 0.2 | 78.4 | 3 | EC50 [7]: 5 to 10 µM |
| CC(C)(C)NC1CCN(c2c(C#N)c(NCc3ccncc3)nc3ccccc23)CC1 [Compound 3306CN, 2-[(pyridin-4-ylmethyl)amino]-3-cyano-4-[4-(tert-butylamino)piperidin-1-yl]quinoline] | – | – | – | – | – | – | 97.6 | 94.5 | 79.2 | 77.4 | 83.9 | 72.6 | 91.7 | 82.4 | 84 | 71.7 | 83.4 | 71.6 | 101 | 93.3 | – |

Now from value to compound, other results behind:

| EC50 [1] [µM] | EC50 [2] [µM] | EC50 [3] [µM] | EC50 [4] [µM] | EC50 [5] [µM] | EC50 [6] [µM] | Compound | viability at 4 µM [1] [%] | viability at 10 µM [1] [%] | viability at 4 µM [2] [%] | viability at 10 µM [2] [%] | viability at 4 µM [3] [%] | viability at 10 µM [3] [%] | viability at 4 µM [4] [%] | viability at 10 µM [4] [%] | viability at 4 µM [5] [%] | viability at 10 µM [5] [%] | viability at 4 µM [6] [%] | viability at 10 µM [6] [%] | viability at 4 µM [7] [%] | viability at 10 µM [7] [%] | further results |
| --- | --- | --- | --- | --- | --- | --- | --- | --- | --- | --- | --- | --- | --- | --- | --- | --- | --- | --- | --- | --- | --- |
| 0.5 to 5 | 0.5 to 5 | 0.5 to 5 | 0.5 to 5 | 0.5 to 5 | 0.5 to 5 | N#Cc1c(NCc2ccc(Cl)cc2)nc2ccccc2c1N1CCC(NC2CCCC2)CC1 [Compound 3178CN, 2-(4-chlorobenzylamino)-3-cyano-4-[4-(cyclopentylamino)piperidin-1-yl]quinoline] | 90.4 | 0.7 | 0.4 | 0.5 | 0.3 | 0.4 | 58.8 | 0.6 | 1.3 | 0.5 | 6 | 0.5 | 85.8 | 0.8 | EC50 [7]: 5 to 10 µM |
| 5 to 10 | 0.5 to 5 | 0.5 to 5 | 5 to 10 | 5 to 10 | 5 to 10 | CC(C)(C)NC1CCN(c2c(C#N)c(NCc3ccc4c(c3)OCO4)nc3ccccc23)CC1 [Compound 3300CN, 2-[(benzo[d][1,3]dioxol-5-ylmethyl)amino]-3-cyano-4-[4-(tert-butylamino)piperidin-1-yl]quinoline] | 70.2 | 0.5 | 47.2 | 0.4 | 13.9 | 0.2 | 63.2 | 0.5 | 60 | 0.8 | 62.7 | 0.5 | 78 | 27.4 | EC50 [7]: 5 to 10 µM |
| 0.5 to 5 | 0.5 to 5 | 0.5 to 5 | 5 to 10 | 0.5 to 5 | 5 to 10 | N#Cc1c(NCc2ccc(Cl)cc2)nc2ccccc2c1N1CCC(N2CCCC2)CC1 [Compound 200CN, 2-(4-chlorobenzylamino)-3-cyano-4-[4-(pyrrolidin-1-yl)piperidin-1-yl]quinoline] | 92.7 | 0.4 | 65.9 | 0.4 | 78.1 | 0.5 | 83.1 | 0.7 | 74.8 | 2.2 | 90.8 | 0.9 | 98.8 | 60.8 | EC50 [7]: 5 to 10 µM |
| 5 to 10 | 0.5 to 5 | 0.5 to 5 | 0.5 to 5 | 0.5 to 5 | 0.5 to 5 | N#Cc1c(NCc2ccc(Cl)cc2)nc2ccccc2c1N1CCCC(N)C1 (centres unmarked) [Compound 3156CN, 2-(4-chlorobenzylamino)-3-cyano-4-(3-aminopiperidin-1-yl)quinoline] | 92.8 | 0.6 | 10 | 0.4 | 52 | 0.5 | 83 | 0.6 | 77.8 | 0.6 | 32.6 | 0.5 | 102 | 0.9 | EC50 [7]: 5 to 10 µM |
